These results are taken from EP4803525A1 (Hefei Institute of Pharmaceutical Industry Co., Ltd., priority 2023, dated 2025).

For series [1], the system named is rat model of chronic obstructive pulmonary disease (COPD). The series can be described thus: Chronic obstructive pulmonary disease in rats (fumigation and intratracheal LPS). As to conditions: n=8; for 14-day FEV 1/FVC (%): day 14 of treatment; for 14-day FEV 1/FVC (%) / 28-day FEV 1/FVC (%): Mean ± SD; for 28-day FEV 1/FVC (%): last administration (28 days); for Pathological score: lung tissue, HE staining; for Pathological score / IL-1β / TNF-α: mean ± SD; for IL-1β / TNF-α: serum, ELISA. (In general: An ELISA detects its analyte on a solid surface through an enzyme-linked reagent.)
Procedure: Subsequently, the SD rats were randomly divided into 5 groups according to their body weight, with 8 rats in each group and half male and half female.
Except for the blank control group, SD rats were used to establish a rat model of chronic obstructive pulmonary disease (COPD) by fumigation and intratracheal instillation of LPS. On days 1, 14, 28 and 42 of modeling, the rats were anesthetized with chloral hydrate and then 125 µL of LPS (2 mg/mL) solution was instilled into the trachea. For the rest of the time, the animals were placed in a self-made fumigation box and each group of rats was continuously fumigated with 10 lit cigarettes for 1.5 hours (once in the morning and once in the afternoon) for 50 consecutive days. After the model was established, the rats in each group were given the drug twice a day for 28 consecutive days.
The rat lung function test instrument was used to measure FVC and FEV1 on day 14 of treatment and at the last administration, and the FEV1/FVC ratio was calculated.
Blood samples were collected after the last administration of the drug to measure inflammatory markers. Levels of IL-1β and TNF-α in serum were measured according to the ELISA instructions.
After the last treatment, all three lobes of the right lung of the rats were removed, fixed and dehydrated in 10% formaldehyde, embedded in paraffin, sectioned, and stained with hematoxylin and eosin (HE). The morphological changes of the lung tissue of the rats in each group were observed.

In series [2] the test system is bleomycin-induced pulmonary fibrosis in rats. As to the kind of experiment: Bleomycin-induced pulmonary fibrosis in rats. As to conditions: mean ± SD, n=10; for Percentage of lung collagen fibers (%): Masson's staining; for IL-6 / TGF-β: bronchoalveolar lavage fluid, ELISA.
Procedure: 50 SD rats were randomly divided into 5 groups according to their body weight, with 10 rats in each group and half male and half female.
After anesthetizing rats with chloral hydrate, bleomycin solution was injected into the trachea through the vocal cords at a dose of 5 mg/kg and a volume of 1 ml/kg; rats in the blank control group were injected with an equal volume of physiological saline into the trachea. […] Blood and lungs were collected from each group of animals on day 22. After euthanizing the rats, the trachea was exposed, and an intravenous cannula was inserted into the rat's bronchus. The trachea was lavaged twice with PBS (5 ml), and the lavage fluid was collected. Then, centrifugation was performed at 1500 r/min for 10 min. The supernatant was collected.
A further series concerns the target T1, hERG potassium channel (Homo sapiens, UniProt Q12809).
T1 construct: host or cells: HEK-293
As to the kind of experiment: hERG whole-cell patch-clamp test in HEK-293 cells. The following applies: HEK-293 cells stably expressing hERG, whole-cell patch clamp, 0.03-30 µM, read-out: h ERG IC50. It is filed as cell-based. How it is done:
HEK-293 cell line stably expressing hERG potassium channels (purchased from Creacell, catalog number: A-0320) was used. HEK293 cell lines were cultured in DMEM medium containing 10% fetal bovine serum and 0.8 mg/mL G418 at a temperature of 37°C and a carbon dioxide concentration of 5%. For patch-clamp assays, cells were separated using TrypLE™ Express before the assay. 4 × 10^3 cells were seeded onto coverslips and cultured in 24-well plates (final volume: 500 µL). The assays were performed 18 hours later.
Whole-cell patch-clamp test: after whole-cell sealing is achieved, the cell membrane voltage is clamped to -80mV. […] Data was collected every 10 seconds to observe the effect of the drug on hERG tail current. A -50 mV stimulus of 0.5 s was used as the leakage current detection. Experimental data were collected by the EPC-10 amplifier and stored in the software. Once the hERG current recorded in whole cells stabilized, drug administration began. Each drug concentration was administered for 5 minutes (or the current stabilized) before the next concentration was measured.
On the technique in general: Block of hERG is tested as a sign of cardiac risk.

Series [3] has as its system mouse eosinophilic asthma model. As to the kind of experiment: Eosinophilic asthma induced by house dust mite extract in mice. The following applies: eosinophilic asthmatic mice, n=10; for IL-4 / IgE: bronchoalveolar lavage fluid, Mean ± SD; for Eosinophils (%): lung lavage fluid; for Eosinophils (%) / Number of sneezes (20 minutes): mean ± SD; for Number of sneezes (20 minutes): within 20 minutes after the last administration.
Procedure: The number of eosinophils in the lung lavage fluid of mice and the number of sneezes in mice within 20 minutes after the last administration were counted.

In a further series the target is T2, PDE4C1 (Homo sapiens, UniProt Q08493).
T2 construct: purchased BPS bioscience
As to the kind of experiment: Selectivity for PDE4 enzyme isotypes, same detection method as PDE4B. Type of series: biochemical. The procedure: (§1) 2.1 Compound preparation and treatment: all compounds were prepared into 50 mM stock solutions using dimethyl sulfoxide.
(§2) 2.2 Preparation of working stock solution: a) the reference rolipram was serially diluted 3 times with dimethyl sulfoxide starting from 2 mmol, to a total of 10 concentrations. b) 2 mmol of the compound of the present invention was serially diluted three times with dimethyl sulfoxide (DMSO) to a total of 10 concentrations. c) A 200X positive control (2 mM rolipram) and a 200X vector control (100% dimethyl sulfoxide) were prepared. d) The compound plate was centrifuged at 1000 rpm for 1 minute.
(§3) • a) An Echo 550 was used to transfer 20 nL of compound dilution to each well of the detection plate. • b) The test plate was sealed and centrifuged at 1000 rpm for 1 minute. • c) 2X PDE4B2 was prepared in frozen PDE detection buffer. • d) 2 µL of 2X PDE4B2 was added to each well of the detection plate (prepared in step b). • e) The test plate was sealed and incubated for 10 minutes under RT conditions. • f) 2X Cyclic-3',5'-AMP was prepared in PDE detection buffer. • g) 2 µl of 2X Cyclic-3',5'-AMP (prepared in step f) was added to each well of the detection plate (prepared in step e) to initiate the reaction. Incubation was performed at room temperature for 60 minutes. • h) 4 µL of AMP-Glo reagent I was added. • i) 8 µL of AMP detection solution was added. Incubation was performed at room temperature for 60 minutes. • k) The RLU signal was read on the Envision 2105 reader.
(§4) Same detection method as PDE4B

A further series has as its target T3, PDE4D3 (Homo sapiens, UniProt Q08499).
T3 construct: purchased BPS bioscience
Described as above. It is filed as biochemical. The procedure:
as §1, §2, §3, §4

In another series the target is T4, PDE4D2 (Homo sapiens, UniProt Q08499).
T4 construct: purchased BPS bioscience
Described as above. Type of series: biochemical. How it is done:
as §1, §2, §3, §4

The target of a further series is T5, PDE4A1A (Homo sapiens, UniProt P27815).
T5 construct: purchased BPS bioscience
The description is as above. It is filed as biochemical. How it is done:
as §1, §2, §3, §4

Another series deals with T6, PDE4B2A (Homo sapiens, UniProt Q07343).
T6 construct: purchased BPS bioscience
Described as above. It is filed as biochemical. The procedure: as §1, §2, §3, §4

The target in a further series is T7, PDE4B2 (Homo sapiens, UniProt Q07343).
T7 construct: purchased BPS bioscience
The series can be described thus: Inhibitory activity against PDE4B enzyme (AMP-Glo detection). It is filed as biochemical. The procedure:
as §1, §2, §3

The mark [4] stands for this setting: 5 mg/kg twice a day for 28 days.
[5] abbreviates: 10 mg/kg twice a day for 28 days.
[6] abbreviates: 20 mg/kg twice a day for 28 days.
[7] abbreviates: 5 mg/kg intragastric twice daily for 14 days.
[8] abbreviates: 10 mg/kg intragastric twice daily for 14 days.
Where [9] appears, read: 20 mg/kg intragastric twice daily for 14 days.
The mark [10] stands for this setting: 5 mg/kg twice daily for 14 days.
The mark [11] stands for this setting: 10 mg/kg twice daily for 14 days.
Setting [12] is: 20 mg/kg twice daily for 14 days.

Molecules are shown by their SMILES. A value given as a limit tells only on which side of the number the result lay.

T1 sequence (Q12809 whole entry): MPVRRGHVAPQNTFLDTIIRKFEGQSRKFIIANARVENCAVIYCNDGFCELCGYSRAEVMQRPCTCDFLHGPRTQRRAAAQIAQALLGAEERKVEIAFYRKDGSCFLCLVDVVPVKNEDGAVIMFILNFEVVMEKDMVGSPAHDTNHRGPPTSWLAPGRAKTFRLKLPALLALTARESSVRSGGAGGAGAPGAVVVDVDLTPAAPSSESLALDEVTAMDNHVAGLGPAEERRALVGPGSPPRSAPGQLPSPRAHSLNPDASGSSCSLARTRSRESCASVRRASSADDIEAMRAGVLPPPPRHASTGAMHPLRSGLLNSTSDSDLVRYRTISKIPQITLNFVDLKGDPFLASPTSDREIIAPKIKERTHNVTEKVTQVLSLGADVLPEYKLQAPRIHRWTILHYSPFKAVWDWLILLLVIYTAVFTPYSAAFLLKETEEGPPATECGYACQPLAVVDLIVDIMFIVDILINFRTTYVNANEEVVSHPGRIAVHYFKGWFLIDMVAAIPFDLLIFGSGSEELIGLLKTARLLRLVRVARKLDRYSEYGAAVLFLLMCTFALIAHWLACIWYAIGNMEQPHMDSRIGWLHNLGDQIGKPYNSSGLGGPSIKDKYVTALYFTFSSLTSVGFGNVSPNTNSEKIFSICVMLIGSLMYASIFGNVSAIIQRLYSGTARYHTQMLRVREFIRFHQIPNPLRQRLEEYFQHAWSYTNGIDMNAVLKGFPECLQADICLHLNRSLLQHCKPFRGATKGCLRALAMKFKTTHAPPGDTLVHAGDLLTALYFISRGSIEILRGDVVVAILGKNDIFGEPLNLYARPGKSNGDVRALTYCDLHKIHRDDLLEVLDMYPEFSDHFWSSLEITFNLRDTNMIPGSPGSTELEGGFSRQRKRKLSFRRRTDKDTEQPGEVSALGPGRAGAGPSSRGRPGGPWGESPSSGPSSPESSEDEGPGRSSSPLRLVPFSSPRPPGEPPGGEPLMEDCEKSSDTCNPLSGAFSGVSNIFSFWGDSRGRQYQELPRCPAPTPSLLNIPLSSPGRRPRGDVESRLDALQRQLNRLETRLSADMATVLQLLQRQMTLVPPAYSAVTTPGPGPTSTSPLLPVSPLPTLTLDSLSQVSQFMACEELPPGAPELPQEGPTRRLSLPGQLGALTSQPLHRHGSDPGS
T7 sequence (Q07343 1-564 isoform Q07343-2): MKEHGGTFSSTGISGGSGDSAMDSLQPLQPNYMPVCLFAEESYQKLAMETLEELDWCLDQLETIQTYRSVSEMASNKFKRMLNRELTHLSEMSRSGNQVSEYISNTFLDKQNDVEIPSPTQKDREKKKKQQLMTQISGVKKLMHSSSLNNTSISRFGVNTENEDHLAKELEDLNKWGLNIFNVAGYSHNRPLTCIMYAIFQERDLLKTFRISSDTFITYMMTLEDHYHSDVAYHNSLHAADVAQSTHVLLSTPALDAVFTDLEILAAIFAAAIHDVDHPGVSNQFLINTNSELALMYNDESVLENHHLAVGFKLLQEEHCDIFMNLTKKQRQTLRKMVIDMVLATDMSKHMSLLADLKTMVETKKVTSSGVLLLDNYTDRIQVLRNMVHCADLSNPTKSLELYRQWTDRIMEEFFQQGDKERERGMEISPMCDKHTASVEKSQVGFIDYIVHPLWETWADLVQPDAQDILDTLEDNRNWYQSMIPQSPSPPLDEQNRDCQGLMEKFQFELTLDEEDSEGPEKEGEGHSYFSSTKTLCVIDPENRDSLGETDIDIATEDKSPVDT
T2 sequence (Q08493 whole entry): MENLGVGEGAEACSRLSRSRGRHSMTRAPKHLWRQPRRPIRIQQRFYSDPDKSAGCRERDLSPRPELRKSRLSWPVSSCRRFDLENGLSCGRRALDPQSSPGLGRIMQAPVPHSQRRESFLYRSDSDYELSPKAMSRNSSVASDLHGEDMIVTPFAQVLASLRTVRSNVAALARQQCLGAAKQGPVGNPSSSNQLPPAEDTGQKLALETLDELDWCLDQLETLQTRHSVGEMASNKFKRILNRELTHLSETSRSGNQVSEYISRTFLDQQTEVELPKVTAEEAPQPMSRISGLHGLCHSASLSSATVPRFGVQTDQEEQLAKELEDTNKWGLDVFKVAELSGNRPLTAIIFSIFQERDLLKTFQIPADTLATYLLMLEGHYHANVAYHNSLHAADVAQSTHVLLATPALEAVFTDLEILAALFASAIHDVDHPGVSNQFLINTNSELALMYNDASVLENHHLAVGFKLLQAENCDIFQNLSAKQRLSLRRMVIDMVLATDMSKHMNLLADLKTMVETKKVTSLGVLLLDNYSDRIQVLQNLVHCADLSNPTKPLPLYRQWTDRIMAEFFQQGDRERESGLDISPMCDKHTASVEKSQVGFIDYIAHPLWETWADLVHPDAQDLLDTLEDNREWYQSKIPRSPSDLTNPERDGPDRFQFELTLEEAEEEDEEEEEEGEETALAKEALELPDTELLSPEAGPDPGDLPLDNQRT
T5 sequence (P27815 1-647 isoform P27815-4): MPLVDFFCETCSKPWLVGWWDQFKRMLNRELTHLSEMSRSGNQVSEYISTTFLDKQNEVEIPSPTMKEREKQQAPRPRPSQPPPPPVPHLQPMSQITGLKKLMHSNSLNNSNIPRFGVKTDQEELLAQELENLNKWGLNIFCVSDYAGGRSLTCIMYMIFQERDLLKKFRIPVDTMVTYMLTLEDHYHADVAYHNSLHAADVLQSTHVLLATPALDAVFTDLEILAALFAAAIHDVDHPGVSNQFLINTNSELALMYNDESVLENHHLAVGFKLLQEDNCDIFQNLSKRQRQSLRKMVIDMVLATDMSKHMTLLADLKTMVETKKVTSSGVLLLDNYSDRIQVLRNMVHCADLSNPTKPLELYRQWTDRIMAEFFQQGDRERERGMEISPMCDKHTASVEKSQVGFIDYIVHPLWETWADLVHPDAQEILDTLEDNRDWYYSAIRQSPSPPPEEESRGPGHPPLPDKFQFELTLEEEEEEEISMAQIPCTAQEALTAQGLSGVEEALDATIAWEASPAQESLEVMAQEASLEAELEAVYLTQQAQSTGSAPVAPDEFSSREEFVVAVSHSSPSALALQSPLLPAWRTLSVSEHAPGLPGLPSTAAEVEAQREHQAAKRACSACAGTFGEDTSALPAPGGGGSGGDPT
T3 sequence (Q08499 1-673 isoform Q08499-2): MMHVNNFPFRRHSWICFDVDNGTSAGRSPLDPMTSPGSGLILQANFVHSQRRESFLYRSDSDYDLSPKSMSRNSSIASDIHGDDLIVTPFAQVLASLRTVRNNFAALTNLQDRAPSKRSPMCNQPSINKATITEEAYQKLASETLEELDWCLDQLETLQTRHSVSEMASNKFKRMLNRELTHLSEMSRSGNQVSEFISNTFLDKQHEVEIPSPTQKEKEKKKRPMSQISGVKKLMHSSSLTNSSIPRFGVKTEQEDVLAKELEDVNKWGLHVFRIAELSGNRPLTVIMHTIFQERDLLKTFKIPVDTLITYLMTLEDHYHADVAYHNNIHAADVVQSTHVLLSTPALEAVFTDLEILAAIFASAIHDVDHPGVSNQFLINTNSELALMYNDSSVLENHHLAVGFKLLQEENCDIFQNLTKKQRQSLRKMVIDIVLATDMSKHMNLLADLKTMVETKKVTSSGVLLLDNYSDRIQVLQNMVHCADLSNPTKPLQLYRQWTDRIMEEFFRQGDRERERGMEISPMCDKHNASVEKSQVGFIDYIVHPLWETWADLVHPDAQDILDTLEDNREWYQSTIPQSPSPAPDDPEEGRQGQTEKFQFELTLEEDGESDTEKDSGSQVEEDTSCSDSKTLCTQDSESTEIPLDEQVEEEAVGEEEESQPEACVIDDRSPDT
T6 sequence (Q07343 1-564 isoform Q07343-2): as the sequence (Q07343 1-564 isoform Q07343-2) above
T4 sequence (Q08499 303-809): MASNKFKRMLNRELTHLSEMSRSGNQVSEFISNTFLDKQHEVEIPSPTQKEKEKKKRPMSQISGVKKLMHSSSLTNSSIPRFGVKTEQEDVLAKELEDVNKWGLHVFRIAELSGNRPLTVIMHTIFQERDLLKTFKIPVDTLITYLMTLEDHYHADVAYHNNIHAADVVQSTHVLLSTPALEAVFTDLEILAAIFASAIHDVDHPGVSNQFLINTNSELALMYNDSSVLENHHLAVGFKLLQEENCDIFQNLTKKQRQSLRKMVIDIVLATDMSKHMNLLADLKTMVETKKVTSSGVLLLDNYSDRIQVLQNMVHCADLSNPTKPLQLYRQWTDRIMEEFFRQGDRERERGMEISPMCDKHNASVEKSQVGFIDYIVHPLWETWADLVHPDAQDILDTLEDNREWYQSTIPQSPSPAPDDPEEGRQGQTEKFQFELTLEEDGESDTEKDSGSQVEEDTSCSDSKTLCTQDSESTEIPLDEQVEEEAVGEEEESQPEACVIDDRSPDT

For the compound `O=C(O)Cc1ccc(Nc2nc(N3CCC(c4ncc(Cl)cn4)CC3)nc3c2S(=O)(=O)CCC3)cc1F` [Example 11, 2-(4-((2-(4-(5-chloropyrimidin-2-yl)piperidin-1-yl)-5,5-dioxo-7,8-dihydro-6H -thiapyrano[3,2-d]pyrimidin-4-yl)amino)-2-fluorophenyl)acetic acid], in [1] (5 mg/kg twice a day), the “14-day FEV 1/FVC (%)” value worked out at 66.65±5.48 % and the “28-day FEV 1/FVC (%)” value was 69.99±2.65 %. For the same compound, in series [1] (10 mg/kg twice a day), the “14-day FEV 1/FVC (%)” value turned out to be 72.14±6.56 % and the “28-day FEV 1/FVC (%)” value amounted to 75.30±1.84 %. In addition, in [1] (20 mg/kg twice a day), the “14-day FEV 1/FVC (%)” value was 76.78±5.41 % and the “28-day FEV 1/FVC (%)” value worked out at 77.10±1.81 %. Further, in [1] (setting [4]), the Pathological score was 3.83 ± 0.75, the “IL-1β” value amounted to 71.13 ± 16.14 pg/mL and the “TNF-α” value is 118.36 ± 27.30 pg/mL. Besides, in series [1] (setting [5]), the Pathological score stood at 2.00±0.63, the “IL-1β” value was 51.92 ± 16.06 pg/mL and the “TNF-α” value was 90.15 ± 15.79 pg/mL. For the same compound, in [1] (setting [6]), the Pathological score is on record as 1.83±0.41, the “IL-1β” value was 50.75 ± 15.07 pg/mL and the “TNF-α” value was 73.23 ± 11.78 pg/mL. Besides, in series [2] (setting [7]), the “Percentage of lung collagen fibers (%)” value came to 16.1±4.6 %, the “IL-6” value turned out to be 34.8 ± 3.7 pg/mL and the “TGF-β” value is 79.0 ± 6.4 pg/mL. For the same compound, in series [2] (setting [8]), the “Percentage of lung collagen fibers (%)” value worked out at 9.7±2.2 %, the “IL-6” value came out at 32.5 ± 6.1 pg/mL and the “TGF-β” value stood at 69.1 ± 6.3 pg/mL. In series [2] (setting [9]), the “Percentage of lung collagen fibers (%)” value is given as 8.5±2.5 %, the “IL-6” value amounted to 28.3 ± 3.9 pg/mL and the “TGF-β” value was found to be 56.3 ± 5.2 pg/mL. In addition, the IC50 on hERG potassium channel is more than 30 µM. Moreover, in series [3] (setting [10]), the “IL-4” value stood at 70.92 ± 10.87 pg/mL, the “IgE” value turned out to be 266.55 ± 52.03 pg/mL, the “Eosinophils (%)” value worked out at 21.97±2.58 % and the “Number of sneezes (20 minutes)” value was determined as 17.9±3.4. Moreover, in series [3] (setting [11]), the “IL-4” value turned out to be 59.38 ± 9.90 pg/mL, the “IgE” value is 219.05 ± 38.74 pg/mL, the “Eosinophils (%)” value was found to be 17.93±3.30 % and the “Number of sneezes (20 minutes)” value is given as 16.3±3.7. Besides, in series [3] (setting [12]), the “IL-4” value was determined as 51.13 ± 16.07 pg/mL, the “IgE” value is 189.36 ± 56.69 pg/mL, the “Eosinophils (%)” value is reported as 16.04±2.97 % and the “Number of sneezes (20 minutes)” value came out at 13.8±1.9.

As for `[O-][S+]1CCc2nc(N3CCC(c4ncc(Cl)cn4)CC3)nc(NC3(CO)CCC3)c21` (centres unmarked) [WO2013026797 (Compound II)], the IC50 at 5 min at hERG potassium channel (human, HEK-293 cells stably expressing hERG potassium channels) is more than 3.28 µM. Further, the IC50 on PDE4C1 stood at 2190 nM; on PDE4D3, 65.8 nM; against PDE4D2 it was 37.1 nM; against PDE4A1A, 112 nM; against PDE4B2A it was 24.5 nM. For the same compound, the “Selectivity over PDE4B” value at PDE4C1 (PDE4C1 vs PDE4B2A) is given as 89; at PDE4D3 (PDE4D3 vs PDE4B2A) it was 2.7; at PDE4D2 (PDE4D2 vs PDE4B2A), 1.5; at PDE4A1A (PDE4A1A vs PDE4B2A), 4.5; at PDE4B2A (PDE4B2A vs PDE4B2A), 1.

`[O-][S+]1CCc2nc(N3CCN(Cc4ncc(Cl)cn4)CC3)nc(NC3(CO)CCC3)c21` (centres unmarked) [Example 2, 2-(4-((S-chloropyrimidin-2-yl)methyl)piperazin-1-yl)-4-((1-(hydroxymethyl)cyclobutyl)amino)-6,7-dihydrothiopheno[3,2-d]pyrimidine 5-oxide]: the IC50 at hERG potassium channel is more than 30 µM; against PDE4B2, 0.02 to 0.1 µM.

Regarding `Cc1ccc(O)c(C(=O)NC2CCN(c3nc4c(c(NC5(CO)CCC5)n3)[S+]([O-])CC4)CC2)c1` (centres unmarked) [Example 7, 2-hydroxyl-N-(1-(4-((1-(hydroxymethyl)cyclobutyl)amino)-5-oxo-6,7-dihydrothiapheno[3,2-d]pyrimidin-2-yl)piperidin-4-yl)-5-methylbenzamide], the figures for the IC50 at hERG potassium channel and at PDE4B2 were more than 30 µM and 0.001 to 0.02 µM, respectively.

Take `O=C(O)Cc1ccc(Nc2nc(N3CCC(c4ncc(Cl)cn4)CC3)nc3c2S(=O)(=O)CCC3)cc1Cl` [Example 21, 2-(2-chloro-4-((2-(4-(5-chloropyrimidin-2-yl)piperidin-1-yl)-5,5-dioxo-7,8-dihydro-6H -thiapyrano[3,2-d]pyrimidin-4-yl)amino)phenyl)acetic acid]: the IC50 at hERG potassium channel was more than 30 µM; against PDE4B2, 0.001 to 0.02 µM.

Consider `O=C(O)Cc1c(F)cc(Nc2nc(N3CCC(c4ncc(Cl)cn4)CC3)nc3c2S(=O)(=O)CCC3)cc1F` [Example 22, 2-(4-((2-(4-(5-chloropyrimidin-2-yl)piperidin-1-yl)-5,5-dioxo-7,8-dihydro-6H -thiapyrano[3,2-d]pyrimidin-4-yl)amino)-2,6-difluorophenyl)acetic acid], for which the figures for the 50% inhibitory concentration (IC50) at hERG potassium channel and on PDE4B2 were more than 30 µM and 0.001 to 0.02 µM, respectively.

As usually defined, the IC50 is the concentration at which inhibition is half-maximal.
